Assay results reported in US7572606B1 (Nereus Pharmaceuticals, Inc., priority 2005, dated 2009).
Where two headings read alike, the source gives them in different places.

Columns and labels:
[1] = biological target: caspase-like (PGPH) activity of rabbit muscle 20S proteasome (Oryctolagus cuniculus, UniProt A0A5F9DQW2); experiment: In vitro inhibition of 20S proteasome, Z-LLE-AMC; details: read-out: EC50 Caspase-like (PGPH); purified rabbit 20S proteasome, Z-LLE-AMC
DU 145 = experiment: Cell growth inhibition, resazurin, 48 h; assay type: cell-based, human
[2] = tested on: chymotrypsin-like proteasome activity in packed whole blood lysate; experiment: Whole blood proteasome activity after dosing (PWBL assay); assay type: in vivo, male Swiss-Webster mice; details: mice
Procedure: In brief, frozen whole blood samples were thawed on ice for one hour, and resuspended in 700 μL of ice cold 5 mM EDTA, pH 8.0 in order to lyse the cells by hypotonic shock. This represents approximately 2-3 times the volume of the packed whole blood cells. Lysis was allowed to proceed for one hour, and the cellular debris was removed by centrifugation at 14,000×g for 10 minutes. The supernatant (Packed Whole Blood Lysate, PWBL) was transferred to a fresh tube, and the pellet discarded. Protein concentration of the PWBL was determined by BCA assay (Pierce) using BSA as a standard.
Proteasome activity was determined by measuring the hydrolysis of a fluorogenic substrate specific for the chymotrypsin-like activity of proteasomes (suc-LLVY-AMC, Bachem Cat. I-1395). […] The rate of hydrolysis in this system is linear for at least one hour. The hydrolysis rate of each sample is then normalized to relative fluorescent units per milligram of protein (RFU/mg).
The vehicle control consisted of 2% DMSO in 10% solutol. […] Packed whole blood cells were collected by centrifugation, washed with PBS, and re-centrifuged. All samples were stored at −80° C. prior to the evaluation of the proteasome activity.
Male Swiss Webster mice (12/group weighing 20-25 g) were injected with LPS (2 mg/kg) by the i.p. route. […]

SN12C = experiment: NCI 60 cell line screen, sulforhodamine B, 48 h; assay type: cell-based, human; details: Renal Cancer
Procedure: (§1) A detailed description of the screening procedure can be found at hypertext transfer protocol (http://) “dtp.nci.nih.gov/branches/btb/ivclsp.html.”
(§2) In brief, each of the 60 human tumor cell lines were grown in RPMI 1640 medium, supplemented with 5% fetal bovine serum and 2 mM L-glutamine. Cells were plated at their appropriate density in 96-well microtiter plates and incubated at 37° C., 5% CO2, 95% air and 100% relative humidity. […] Cells were incubated for an additional 48 hours and a sulforhodamine B protein assay was used to estimate cell viability or growth.

M14 = experiment: NCI 60 cell line screen, sulforhodamine B, 48 h; assay type: cell-based, human
Procedure: as §1, §2

NCI-H236 = experiment: NCI 60 cell line screen, sulforhodamine B, 48 h; assay type: cell-based, human; details: NCI-H236, Non-Small Cell Lung Cancer
Procedure: as §1, §2

T86-0 = experiment: NCI 60 cell line screen, sulforhodamine B, 48 h; assay type: cell-based, human
Procedure: as §1, §2

COLO 205 = experiment: NCI 60 cell line screen, sulforhodamine B, 48 h; assay type: cell-based, human; details: COLO 205, Colon Cancer
Procedure: as §1, §2

MOLT-4 = experiment: NCI 60 cell line screen, sulforhodamine B, 48 h; assay type: cell-based, human
Procedure: as §1, §2

RPMI-8226 = experiment: NCI 60 cell line screen, sulforhodamine B, 48 h; assay type: cell-based, human
Procedure: as §1, §2

UACC-257 = experiment: NCI 60 cell line screen, sulforhodamine B, 48 h; assay type: cell-based, human
Procedure: as §1, §2

MDA-MB-435 = experiment: NCI 60 cell line screen, sulforhodamine B, 48 h; assay type: cell-based, human; details: for CC50: Homo sapiens
Procedure: as §1, §2

PC-3 = experiment: NCI 60 cell line screen, sulforhodamine B, 48 h; assay type: cell-based, human
Procedure: as §1, §2

EKVX = experiment: NCI 60 cell line screen, sulforhodamine B, 48 h; assay type: cell-based, human; details: Non-Small Cell Lung Cancer
Procedure: as §1, §2

MALME-3M = experiment: NCI 60 cell line screen, sulforhodamine B, 48 h; assay type: cell-based, human; details: Melanoma
Procedure: as §1, §2

T-47D = experiment: NCI 60 cell line screen, sulforhodamine B, 48 h; assay type: cell-based, human
Procedure: as §1, §2

SK-MEL-2 = experiment: NCI 60 cell line screen, sulforhodamine B, 48 h; assay type: cell-based, human; details: SK-MEL-2, Melanoma
Procedure: as §1, §2

SW-620 = experiment: NCI 60 cell line screen, sulforhodamine B, 48 h; assay type: cell-based, human; details: SW-620, Colon Cancer
Procedure: as §1, §2

OVCAR-3 = experiment: NCI 60 cell line screen, sulforhodamine B, 48 h; assay type: cell-based, human; details: OVCAR-3, Ovarian Cancer
Procedure: as §1, §2

MDA-MB-231/ATCC = experiment: NCI 60 cell line screen, sulforhodamine B, 48 h; assay type: cell-based, human; details: Breast Cancer
Procedure: as §1, §2

SF-295 = experiment: NCI 60 cell line screen, sulforhodamine B, 48 h; assay type: cell-based, human; details: SF-295, CNS Cancer
Procedure: as §1, §2

RXF393 = experiment: NCI 60 cell line screen, sulforhodamine B, 48 h; assay type: cell-based, human; details: RXF393, Renal Cancer
Procedure: as §1, §2

caspase-like (PGPH) activity of rabbit muscle 20S proteasome, sequence (A0A5F9DQW2 1-212): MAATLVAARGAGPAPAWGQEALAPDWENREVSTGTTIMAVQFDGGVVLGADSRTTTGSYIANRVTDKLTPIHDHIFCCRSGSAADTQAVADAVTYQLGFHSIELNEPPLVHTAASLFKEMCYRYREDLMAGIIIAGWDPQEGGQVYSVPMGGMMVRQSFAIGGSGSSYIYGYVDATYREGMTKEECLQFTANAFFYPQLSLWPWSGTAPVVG

C[C@H]1C(=O)N[C@@]2([C@@H](O)[C@@H]3C=CCCC3)C(=O)O[C@@]12C [Formula II-20] was tested, and the EC50 [1] was 1420 nM.

With C[C@@]12OC(=O)[C@]1([C@@H](O)[C@@H]1C=CCCC1)NC(=O)[C@@H]2CCCl [Formula II-16, Salinosporamide A] the “% cytotoxicity” value (DU 145; DU 145) was 75 ± 4%, the EC50 (DU 145; Homo sapiens, DU 145, 48 h drug exposure) was 37 ± 10 nM and the “proteasomal activity in PWBL” value ([2]; i.v. or oral, blood 90 min after administration) was “profound decrease in proteasomal activity in PWBL”. For the same compound, the “activity upon oral administration (PWBL proteasome)” value ([2]; oral) was “active upon oral administration”, the “Log10 G150” value (SN12C) was less than -8.00 Molar and the “Log10 TGI” value (SN12C) was less than -8.00 Molar. For the same compound, the CC50 (M14; Homo sapiens, M14, read-out: Log10 LC50 (converted)) was 186 nM, the “Log10 G150” value (M14; M14, Melanoma) was less than -8.00 Molar and the “Log10 TGI” value (M14; M14, Melanoma) was -7.94 Molar. For the same compound, the “Log10 G150” value (NCI-H236) was less than -8.00 Molar, the “Log10 TGI” value (NCI-H236) was less than -8.00 Molar and the CC50 (T86-0; Homo sapiens, 60 cell, read-out: Log10 LC50 (converted)) was greater than 100000 nM. For the same compound, the “Log10 G150” value (T86-0; T86-0, Renal Cancer) was less than -8.00 Molar, the “Log10 TGI” value (T86-0; T86-0, Renal Cancer) was -5.37 Molar and the “Log10 G150” value (COLO 205) was less than -8.00 Molar. For the same compound, the “Log10 TGI” value (COLO 205) was -6.19 Molar, the CC50 (MOLT-4; Homo sapiens, MOLT-4, read-out: Log10 LC50 (converted)) was greater than 100000 nM and the “Log10 G150” value (MOLT-4; MOLT-4, Leukemia) was less than -8.00 Molar. The “Log10 TGI” value (MOLT-4; MOLT-4, Leukemia) was less than -8.00 Molar, the CC50 (RPMI-8226; Homo sapiens, RPMI-8226, read-out: Log10 LC50 (converted)) was greater than 100000 nM and the “Log10 G150” value (RPMI-8226; RPMI-8226, Leukemia) was less than -8.00 Molar. For the same compound, the “Log10 TGI” value (RPMI-8226; RPMI-8226, Leukemia) was less than -8.00 Molar, the CC50 (UACC-257; Homo sapiens, UACC-257, read-out: Log10 LC50 (converted)) was 427 nM and the “Log10 G150” value (UACC-257; UACC-257, Melanoma) was less than -8.00 Molar. For the same compound, the “Log10 TGI” value (UACC-257; UACC-257, Melanoma) was less than -8.00 Molar, the CC50 (MDA-MB-435; MDA-MB-435, read-out: LC50) was less than 10 nM and the CC50 (MDA-MB-435; MDA-MB-435, read-out: Log10 LC50 (converted)) was less than 10 nM. The “Log10 G150” value (MDA-MB-435; MDA-MB-435, Breast Cancer) was less than -8.00 Molar, the “Log10 TGI” value (MDA-MB-435; MDA-MB-435, Breast Cancer) was less than -8.00 Molar and the CC50 (PC-3; Homo sapiens, PC-3, read-out: Log10 LC50 (converted)) was 11700 nM. For the same compound, the “Log10 G150” value (PC-3; PC-3, Prostate Cancer) was less than -8.00 Molar, the “Log10 TGI” value (PC-3; PC-3, Prostate Cancer) was -5.81 Molar and the “Log10 G150” value (EKVX) was less than -8.00 Molar. The “Log10 TGI” value (EKVX) was -5.67 Molar, the “Log10 G150” value (MALME-3M) was less than -8.00 Molar and the “Log10 TGI” value (MALME-3M) was less than -8.00 Molar. The CC50 (T-47D; Homo sapiens, T47D, read-out: Log10 LC50 (converted)) was greater than 100000 nM, the “Log10 G150” value (T-47D; T-47D, Breast Cancer) was less than -8.00 Molar and the “Log10 TGI” value (T-47D; T-47D, Breast Cancer) was greater than -4.00 Molar. For the same compound, the “Log10 G150” value (SK-MEL-2) was less than -8.00 Molar, the “Log10 TGI” value (SK-MEL-2) was less than -8.00 Molar and the “Log10 G150” value (SW-620) was less than -8.00 Molar. For the same compound, the “Log10 TGI” value (SW-620) was greater than -4.00 Molar, the “Log10 G150” value (OVCAR-3) was less than -8.00 Molar and the “Log10 TGI” value (OVCAR-3) was -4.83 Molar. The “Log10 G150” value (MDA-MB-231/ATCC) was less than -8.00 Molar, the “Log10 TGI” value (MDA-MB-231/ATCC) was less than -8.00 Molar and the “Log10 G150” value (SF-295) was less than -8.00 Molar. The “Log10 TGI” value (SF-295) was less than -8.00 Molar, the “Log10 G150” value (RXF393) was less than -8.00 Molar and the “Log10 TGI” value (RXF393) was less than -8.00 Molar.
